Source: US20250154162A1, “COMPOUND FOR REGULATING AND CONTROLLING 15-PGDH ACTIVITY AND PREPARATION METHOD THEREFOR” (SCINNOHUB PHARMACEUTICAL CO., LTD., priority 2022, published 2025)

Columns and labels:
15-PGDH = 15-PGDH (Homo sapiens (Human), UniProt P15428); assay: Detection of 15-PGDH enzyme activity; format: biochemical; conditions: 15-PGDH enzyme inhibitory activity; substrates β-NAD and PGF2α
Excerpt: The formula was shown below: Y=Bottom+(Top-Bottom)/(1+10∧((LogIC50−X)*HillSlope)), wherein X is a log value of a concentration of the compound, and Y is inhibition rate %.

A549 cells = assay: Assay of intracellular PGE2 up-regulatory activity; format: cell-based; conditions: Homo sapiens, IL-1β induced, 8 h, relative to positive control group; for activity at 0.3 µM: 300 nM compound, read-out: PGE2 upregulation rate at 300 nM compound concentration; for activity at 0.01 µM: 10 nM compound, read-out: PGE2 upregulation rate at 10 nM compound concentration
Experimental: • a) A549 cells were inoculated in the 24-well plate, and after cell adhesion, IL-1β was added thereto for 16 h of stimulation to induce COX2 expression and PGE2 production. • b) A solution of the compound to be tested was prepared with the culture medium and gradiently diluted to 3 concentrations of 10 nM, 300 nM and 10,000 nM or 7 concentrations of 0.64 nM, 3.2 nM, 16 nM, 80 nM, 400 nM, 2000 nM and 10,000 nM, and meanwhile the positive control group (only IL-1β was added to the cells for induction) and negative control group (only cells were added in the wells without any treatment) were set up. The cell supernatants were collected after 8 h of action, in which the positive control group was induced by IL-1β without treatment of the compounds, and the negative control group was neither stimulated by IL-1β, nor treated with the compounds. • c) The PGE2 content of the samples was determined by Prostaglandin E2 Kit, and the fluorescence signal was detected by a multifunctional microplate reader (Ex/Em=337/620, 337/665).
• a) A standard curve was plotted with the PGE2 standard in the Prostaglandin E2 Kit, and the PGE2 concentration was calculated by substituting with the fluorescence signal of the sample. • b) The PGE2 upregulation rate % was calculated by using the following formula: • PGE2 upregulation rate %=(PGE2 concentration of sample group/PGE2 concentration of positive control group)×100%.

Sequence of 15-PGDH (P15428 whole entry): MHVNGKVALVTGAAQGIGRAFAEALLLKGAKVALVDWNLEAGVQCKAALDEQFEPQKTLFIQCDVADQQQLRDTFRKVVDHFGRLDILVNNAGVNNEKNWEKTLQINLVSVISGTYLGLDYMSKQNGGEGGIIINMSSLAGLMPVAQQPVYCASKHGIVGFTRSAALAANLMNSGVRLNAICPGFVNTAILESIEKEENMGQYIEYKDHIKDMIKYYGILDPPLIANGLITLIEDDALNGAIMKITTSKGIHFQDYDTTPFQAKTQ

IC50 (15-PGDH) [nM]	Compound	activity at 0.3 µM (A549 cells) [%]	activity at 0.01 µM (A549 cells) [%]
3 to 10	Cn1ccc(-c2cnc3c(N)c(C(=O)N4CCCCC4)sc3n2)n1 [Example 8]		
3 to 10	N#Cc1ncc(-c2cnc3c(N)c(C(=O)N4CCCCC4)sc3n2)cn1 [Example 44]		
0.5 to 3	Nc1c(C(=O)N2CCCCC2)sc2nc(-c3ccc4cccnc4c3)cnc12 [Example 39]		
0.5 to 3	Cn1ccc(-c2cnc3c(N)c(C(=O)N4CCCCC4)sc3n2)cc1=O [Example 42]	204	
10 to 25	Nc1c(C(=O)N2CCCCCC2)sc2nc(-c3ccccc3)cnc12 [Example 4]		
0.5 to 3	Nc1c(C(=O)N2CCCCC2)sc2nc(-c3cncc4ccccc34)cnc12 [Example 26]		499
3 to 10	Nc1c(C(=O)N2CCCCC2)sc2nc(-c3cccnc3)cnc12 [Example 32]		530
0.5 to 3	Nc1c(C(=O)N2CCCCC2)sc2nc(-c3cccs3)cnc12 [Example 5]		451
0.5 to 3	Cc1cc(-c2cnc3c(N)c(C(=O)N4CCCCC4)sc3n2)ccn1 [Example 30]	341	
1000 to 5000	Nc1c(C(=O)N2CCS(=O)(=O)CC2)sc2nc(-c3ccccc3)cnc12 [Example 53]		
3 to 10	Nc1c(C(=O)N2CCCCC2)sc2nc(-c3ccnc(C(F)(F)F)c3)cnc12 [Example 37]		
0.5 to 3	Nc1c(C(=O)N2CCCCC2)sc2nc(-c3cncs3)cnc12 [Example 7]	758	479
50 to 1000	CC1CN(C(=O)c2sc3nc(-c4ccccc4)cnc3c2N)CC(C)O1 (stereo not drawn) [Example 55]		
3 to 10	Nc1c(C(=O)N2CCCCC2)sc2nc(-c3ccc(N4CCOCC4)nc3)cnc12 [Example 19]		
0.5 to 3	Nc1c(C(=O)N2CCCCC2)sc2nc(-c3cnc4[nH]ccc4c3)cnc12 [Example 29]		
0.5 to 3	Cn1ccc2cc(-c3cnc4c(N)c(C(=O)N5CCCCC5)sc4n3)ccc2c1=O [Example 64]	196	173
0.5 to 3	Nc1c(C(=O)N2CCCCC2)sc2nc(-c3ccc4nc[nH]c4c3)cnc12 [Example 40]	315	233
50 to 1000	Nc1c(C(=O)N2CCC3(CC2)CC3)sc2nc(-c3ccccc3)cnc12 [Example 57]		
10 to 25	Nc1c(C(=O)N2CCSCC2)sc2nc(-c3ccccc3)cnc12 [Example 16]		
< 0.5	Nc1c(C(=O)N2CCCCC2)sc2nc(-c3cnc(N4CCOCC4)nc3)cnc12 [Example 24]	310	
< 0.5	COc1ncc(-c2cnc3c(N)c(C(=O)N4CCCCC4)sc3n2)cn1 [Example 60]		

IC50 (15-PGDH) [nM]	Compound	activity at 0.3 µM (A549 cells) [%]	activity at 0.01 µM (A549 cells) [%]
3 to 10	Nc1c(C(=O)N2CCCCC2)sc2nc(-c3cnc4[nH]ncc4c3)cnc12 [Example 41]		
3 to 10	Nc1c(C(=O)N2CCCCC2)sc2nc(-c3ccn[nH]3)cnc12 [Example 9]		
0.5 to 3	Nc1cc(-c2cnc3c(N)c(C(=O)N4CCCCC4)sc3n2)ccn1 [Example 62]		
0.5 to 3	Nc1c(C(=O)N2CCCCC2)sc2nc(-c3ccc(F)nc3)cnc12 [Example 46]	251	
50 to 1000	Nc1c(C(=O)N2CCC(F)(F)CC2)sc2nc(-c3ccccc3)cnc12 [Example 49]		
> 5000	Nc1c(C(=O)N2CC[S+]([O-])CC2)sc2nc(-c3ccccc3)cnc12 [Example 58]		
0.5 to 3	CN1Cc2cc(-c3cnc4c(N)c(C(=O)N5CCCCC5)sc4n3)ccc2C1=O [Example 63]	222	
0.5 to 3	COc1cncc(-c2cnc3c(N)c(C(=O)N4CCCCC4)sc3n2)c1 [Example 45]	347	177
0.5 to 3	Nc1c(C(=O)N2CCCCC2)sc2nc(-c3ccc4c(c3)OCCO4)cnc12 [Example 10]	206	
10 to 25	Nc1c(C(=O)N2CCC(F)CC2)sc2nc(-c3ccccc3)cnc12 [Example 3, (7-amino-3-phenylthieno[2,3-b]pyrazin-6-yl) (4-fluoropiperidin-1-yl) methanone]		
3 to 10	Nc1c(C(=O)N2CCCCC2)sc2nc(-c3ccc4c(c3)OCO4)cnc12 [Example 43]		
0.5 to 3	Nc1c(C(=O)N2CCCCC2)sc2nc(-c3cnc4ccccc4c3)cnc12 [Example 31]		
0.5 to 3	Nc1c(C(=O)N2CCCCC2)sc2nc(-c3ccc4nccnc4c3)cnc12 [Example 12]	170	
0.5 to 3	Nc1c(C(=O)N2CCCCC2)sc2nc(-c3c(Cl)cccc3Cl)cnc12 [Example 34]		
50 to 1000	CC1(C)CCN(C(=O)c2sc3nc(-c4ccccc4)cnc3c2N)CC1 [Example 56]		
> 5000	Nc1c(C(=O)N2CC3(COC3)C2)sc2nc(-c3ccccc3)cnc12 [Example 59]		
0.5 to 3	Nc1c(C(=O)N2CCCCC2)sc2nc(-c3ccc4ccccc4c3)cnc12 [Example 35]	231	208
3 to 10	Nc1c(C(=O)N2CCCCC2)sc2nc(-c3ccccc3)cnc12 [Example 1, (7-amino-3-phenylthieno[2,3-b]pyrazin-6-yl) (piperidin-1-yl) methanone]		
0.5 to 3	COc1ccc(-c2cnc3c(N)c(C(=O)N4CCCCC4)sc3n2)cn1 [Example 20]		
50 to 1000	Nc1c(C(=O)N2CCC(F)(F)C2)sc2nc(-c3ccccc3)cnc12 [Example 50]		
< 0.5	N#Cc1ccc(-c2cnc3c(N)c(C(=O)N4CCCCC4)sc3n2)cn1 [Example 47]	774	424

IC50 (15-PGDH) [nM]	Compound	activity at 0.3 µM (A549 cells) [%]	activity at 0.01 µM (A549 cells) [%]
0.5 to 3	Cc1ccc(-c2cnc3c(N)c(C(=O)N4CCCCC4)sc3n2)cn1 [Example 36]	384	301
0.5 to 3	Cn1cc(-c2cnc3c(N)c(C(=O)N4CCCCC4)sc3n2)ccc1=O [Example 17]		
3 to 10	Nc1c(C(=O)N2CCCCC2)sc2nc(-c3cccc4ccccc34)cnc12 [Example 61]		
0.5 to 3	Cc1noc(C)c1-c1cnc2c(N)c(C(=O)N3CCCCC3)sc2n1 [Example 11]		990
0.5 to 3	Nc1c(C(=O)N2CCCCC2)sc2nc(-c3cncnc3)cnc12 [Example 6]	450	412
50 to 1000	CN1CCN(C(=O)c2sc3nc(-c4ccccc4)cnc3c2N)CC1 [Example 52]		
10 to 25	Cn1cc(-c2cnc3c(N)c(C(=O)N4CCCCC4)sc3n2)cn1 [Example 48]		
< 0.5	Nc1c(C(=O)N2CCCCC2)sc2nc(-c3ccnc(F)c3)cnc12 [Example 21]	211	
< 0.5	CN(C)c1ncc(-c2cnc3c(N)c(C(=O)N4CCCCC4)sc3n2)cn1 [Example 25]	276	
0.5 to 3	Nc1c(C(=O)N2CCCCC2)sc2nc(-c3ccc4ncccc4c3)cnc12 [Example 22]	329	282
50 to 1000	Nc1c(C(=O)N2CCc3ccccc3C2)sc2nc(-c3ccccc3)cnc12 [Example 54]		
0.5 to 3	Nc1c(C(=O)N2CCCCC2)sc2nc(-c3ccc4nccn4c3)cnc12 [Example 15]	168	
0.5 to 3	Nc1c(C(=O)N2CCCCC2)sc2nc(-c3ccncc3)cnc12 [Example 27]		
0.5 to 3	Nc1ccc(-c2cnc3c(N)c(C(=O)N4CCCCC4)sc3n2)cn1 [Example 13]	207	
3 to 10	Cn1ncc2cc(-c3cnc4c(N)c(C(=O)N5CCCCC5)sc4n3)ccc21 [Example 18]		
< 0.5	Nc1c(C(=O)N2CCCCC2)sc2nc(-c3ccc4ncsc4c3)cnc12 [Example 23]	375	254
0.5 to 3	Nc1c(C(=O)N2CCCCC2)sc2nc(-c3ccc4ncoc4c3)cnc12 [Example 2, (7-amino-3-(benzo[d]oxazol-6-yl)thieno[2,3-b]pyrazin-6-yl) (piperidin-1-yl) methanone]	348	200
< 0.5	Nc1ncc(-c2cnc3c(N)c(C(=O)N4CCCCC4)sc3n2)cn1 [Example 33]	754	393
50 to 1000	Nc1c(C(=O)N2CCOCC2)sc2nc(-c3ccccc3)cnc12 [Example 51]		
0.5 to 3	CN1CCN(c2ncc(-c3cnc4c(N)c(C(=O)N5CCCCC5)sc4n3)cn2)CC1 [Example 28]	318	
